The kinase profiling compilation of Christmann-Franck et al. (2016)

Columns and labels:
Assay in all cases: KINOMEscan competition binding
ULK1 (human) = ULK1 (human) (UniProt O75385); details: compound 1.0 µM
CDK14 (human) = CDK14 (human) (UniProt O94921); details: compound 1.0 µM
CSNK1A1L (human) = CSNK1A1L (human) (UniProt Q8N752); details: compound 1.0 µM
EPHB1 (human) = EPHB1 (human) (UniProt P54762); details: compound 1.0 µM
MAPK10 (human) = MAPK10 (human) (UniProt P53779); details: compound 1.0 µM
NIM1 (human) = NIM1 (human) (UniProt Q8IY84); details: compound 1.0 µM
CDK4 CCND3 (human) = CDK4 CCND3 (human) (UniProt P11802+P30281); details: compound 1.0 µM
RPS6KA2 KD1 (human) = RPS6KA2 KD1 (human) (UniProt Q15349); details: compound 1.0 µM
Sequence of RPS6KA2 KD1 (human) (Q15349 whole entry, looked up): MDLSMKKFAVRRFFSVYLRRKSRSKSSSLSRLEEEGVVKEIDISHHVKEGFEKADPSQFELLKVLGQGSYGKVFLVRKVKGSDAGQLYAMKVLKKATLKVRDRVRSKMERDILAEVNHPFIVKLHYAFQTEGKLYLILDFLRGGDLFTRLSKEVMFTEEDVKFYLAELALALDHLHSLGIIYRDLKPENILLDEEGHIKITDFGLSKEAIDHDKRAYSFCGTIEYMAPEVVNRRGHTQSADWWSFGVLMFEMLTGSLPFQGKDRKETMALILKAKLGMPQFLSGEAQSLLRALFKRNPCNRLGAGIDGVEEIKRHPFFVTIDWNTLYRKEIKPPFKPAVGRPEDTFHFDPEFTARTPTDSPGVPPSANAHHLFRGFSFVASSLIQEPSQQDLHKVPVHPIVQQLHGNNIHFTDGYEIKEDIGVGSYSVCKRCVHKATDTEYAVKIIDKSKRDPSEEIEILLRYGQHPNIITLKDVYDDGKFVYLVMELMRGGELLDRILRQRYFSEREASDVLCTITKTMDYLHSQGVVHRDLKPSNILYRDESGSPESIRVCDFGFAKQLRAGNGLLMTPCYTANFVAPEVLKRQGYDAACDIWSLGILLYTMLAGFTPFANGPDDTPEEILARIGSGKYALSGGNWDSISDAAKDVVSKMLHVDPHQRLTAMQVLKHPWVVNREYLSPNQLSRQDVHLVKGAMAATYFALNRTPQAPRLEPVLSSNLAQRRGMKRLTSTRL

CLK3 (human) = CLK3 (human) (UniProt P49761); details: compound 1.0 µM
DMPK (human) = DMPK (human) (UniProt Q09013); details: compound 1.0 µM
CAMKK1 (human) = CAMKK1 (human) (UniProt Q8N5S9); details: compound 1.0 µM
ALK (human) = ALK (human) (UniProt Q9UM73); details: compound 1.0 µM
SNRK (human) = SNRK (human) (UniProt Q9NRH2); details: compound 1.0 µM
[1] = system: MET (human), P08581 [Y1235D]; details: compound 1.0 µM
DYRK1A (human) = DYRK1A (human) (UniProt Q13627); details: compound 1.0 µM
NUAK1 (human) = NUAK1 (human) (UniProt O60285); details: compound 1.0 µM
PLK3 (human) = PLK3 (human) (UniProt Q9H4B4); details: compound 1.0 µM
MAP3K7 (human) = MAP3K7 (human) (UniProt O43318); details: compound 1.0 µM
Sequence of MAP3K7 (human) (O43318 whole entry, looked up): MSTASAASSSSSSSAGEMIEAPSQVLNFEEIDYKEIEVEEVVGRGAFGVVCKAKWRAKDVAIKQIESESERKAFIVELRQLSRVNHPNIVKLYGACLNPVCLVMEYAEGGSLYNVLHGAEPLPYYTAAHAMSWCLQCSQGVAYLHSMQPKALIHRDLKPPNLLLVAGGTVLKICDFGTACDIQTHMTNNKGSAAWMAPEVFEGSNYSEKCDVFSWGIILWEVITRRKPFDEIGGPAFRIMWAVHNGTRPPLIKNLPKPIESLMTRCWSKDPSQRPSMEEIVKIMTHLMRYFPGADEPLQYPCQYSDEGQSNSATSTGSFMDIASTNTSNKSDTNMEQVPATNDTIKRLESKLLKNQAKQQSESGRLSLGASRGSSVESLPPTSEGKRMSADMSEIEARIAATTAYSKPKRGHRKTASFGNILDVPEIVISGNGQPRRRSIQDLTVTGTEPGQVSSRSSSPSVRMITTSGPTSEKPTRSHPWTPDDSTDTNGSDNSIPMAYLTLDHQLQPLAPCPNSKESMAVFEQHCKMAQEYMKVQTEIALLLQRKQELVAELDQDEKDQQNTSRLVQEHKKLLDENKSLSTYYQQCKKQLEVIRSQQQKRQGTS

LYN (human) = LYN (human) (UniProt P07948); details: compound 1.0 µM
MAPK14 (human) = MAPK14 (human) (UniProt Q16539); details: compound 1.0 µM
DYRK2 (human) = DYRK2 (human) (UniProt Q92630); details: for kinase still bound, per cent of control: compound 1.0 µM
Sequence of DYRK2 (human) (Q92630 whole entry, looked up): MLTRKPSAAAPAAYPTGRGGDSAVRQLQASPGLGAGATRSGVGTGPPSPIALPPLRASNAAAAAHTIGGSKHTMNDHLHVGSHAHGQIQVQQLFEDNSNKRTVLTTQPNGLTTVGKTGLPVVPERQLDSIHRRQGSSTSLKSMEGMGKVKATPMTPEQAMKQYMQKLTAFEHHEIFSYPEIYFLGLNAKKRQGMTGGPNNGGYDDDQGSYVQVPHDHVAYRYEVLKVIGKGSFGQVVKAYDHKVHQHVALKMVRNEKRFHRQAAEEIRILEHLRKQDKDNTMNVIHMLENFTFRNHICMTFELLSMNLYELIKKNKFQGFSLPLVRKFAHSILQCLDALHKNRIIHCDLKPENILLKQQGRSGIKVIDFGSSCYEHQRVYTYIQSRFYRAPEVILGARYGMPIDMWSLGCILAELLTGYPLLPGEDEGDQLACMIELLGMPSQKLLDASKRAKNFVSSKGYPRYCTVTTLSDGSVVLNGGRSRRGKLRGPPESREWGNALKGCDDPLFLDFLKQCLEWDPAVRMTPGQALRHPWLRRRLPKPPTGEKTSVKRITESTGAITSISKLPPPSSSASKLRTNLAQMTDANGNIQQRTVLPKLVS

CaMK1 (human) = CaMK1 (human) (UniProt Q14012); details: compound 1.0 µM
EPHB6 (human) = EPHB6 (human) (UniProt O15197); details: compound 1.0 µM
Sequence of EPHB6 (human) (O15197 whole entry, looked up): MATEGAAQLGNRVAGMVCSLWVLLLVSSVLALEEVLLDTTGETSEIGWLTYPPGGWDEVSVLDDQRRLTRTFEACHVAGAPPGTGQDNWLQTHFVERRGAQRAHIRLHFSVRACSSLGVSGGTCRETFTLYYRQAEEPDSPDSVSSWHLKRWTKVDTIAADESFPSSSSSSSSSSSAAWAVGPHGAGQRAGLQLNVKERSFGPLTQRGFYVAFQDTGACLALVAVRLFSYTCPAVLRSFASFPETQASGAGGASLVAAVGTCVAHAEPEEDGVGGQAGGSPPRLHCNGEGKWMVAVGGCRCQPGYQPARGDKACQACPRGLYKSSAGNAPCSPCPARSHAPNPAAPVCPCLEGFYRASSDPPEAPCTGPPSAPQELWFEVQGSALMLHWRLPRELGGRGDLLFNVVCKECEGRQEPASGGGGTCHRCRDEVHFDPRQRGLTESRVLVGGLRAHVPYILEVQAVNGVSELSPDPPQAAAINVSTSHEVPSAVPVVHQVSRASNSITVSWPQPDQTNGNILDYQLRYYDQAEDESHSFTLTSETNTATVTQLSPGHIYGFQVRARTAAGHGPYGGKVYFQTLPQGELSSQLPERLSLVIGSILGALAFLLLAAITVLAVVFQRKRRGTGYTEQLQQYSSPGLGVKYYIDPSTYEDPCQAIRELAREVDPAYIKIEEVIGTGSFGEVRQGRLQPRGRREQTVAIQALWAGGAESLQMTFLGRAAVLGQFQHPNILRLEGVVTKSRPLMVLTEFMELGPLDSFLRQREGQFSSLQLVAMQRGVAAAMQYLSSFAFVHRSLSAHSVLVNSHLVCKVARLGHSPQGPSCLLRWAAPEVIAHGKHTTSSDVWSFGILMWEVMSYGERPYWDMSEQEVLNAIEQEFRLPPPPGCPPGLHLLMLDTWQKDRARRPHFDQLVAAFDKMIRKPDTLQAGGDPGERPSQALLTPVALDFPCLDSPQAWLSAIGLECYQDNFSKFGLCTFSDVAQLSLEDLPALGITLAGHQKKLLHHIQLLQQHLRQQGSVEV

PRKACA (human) = PRKACA (human) (UniProt P17612); details: compound 1.0 µM
PIK3C2B (human) = PIK3C2B (human) (UniProt O00750); details: compound 1.0 µM
MAPK13 (human) = MAPK13 (human) (UniProt O15264); details: compound 1.0 µM
STK24 (human) = STK24 (human) (UniProt Q9Y6E0); details: compound 1.0 µM
BRAF (human) = BRAF (human) (UniProt P15056); details: compound 1.0 µM
MAPK11 (human) = MAPK11 (human) (UniProt Q15759); details: compound 1.0 µM
PAK4 (human) = PAK4 (human) (UniProt O96013); details: compound 1.0 µM
PRKG1 (human) = PRKG1 (human) (UniProt Q13976); details: compound 1.0 µM
SIK1 (human) = SIK1 (human) (UniProt P57059); details: compound 1.0 µM
Sequence of SIK1 (human) (P57059 whole entry, looked up): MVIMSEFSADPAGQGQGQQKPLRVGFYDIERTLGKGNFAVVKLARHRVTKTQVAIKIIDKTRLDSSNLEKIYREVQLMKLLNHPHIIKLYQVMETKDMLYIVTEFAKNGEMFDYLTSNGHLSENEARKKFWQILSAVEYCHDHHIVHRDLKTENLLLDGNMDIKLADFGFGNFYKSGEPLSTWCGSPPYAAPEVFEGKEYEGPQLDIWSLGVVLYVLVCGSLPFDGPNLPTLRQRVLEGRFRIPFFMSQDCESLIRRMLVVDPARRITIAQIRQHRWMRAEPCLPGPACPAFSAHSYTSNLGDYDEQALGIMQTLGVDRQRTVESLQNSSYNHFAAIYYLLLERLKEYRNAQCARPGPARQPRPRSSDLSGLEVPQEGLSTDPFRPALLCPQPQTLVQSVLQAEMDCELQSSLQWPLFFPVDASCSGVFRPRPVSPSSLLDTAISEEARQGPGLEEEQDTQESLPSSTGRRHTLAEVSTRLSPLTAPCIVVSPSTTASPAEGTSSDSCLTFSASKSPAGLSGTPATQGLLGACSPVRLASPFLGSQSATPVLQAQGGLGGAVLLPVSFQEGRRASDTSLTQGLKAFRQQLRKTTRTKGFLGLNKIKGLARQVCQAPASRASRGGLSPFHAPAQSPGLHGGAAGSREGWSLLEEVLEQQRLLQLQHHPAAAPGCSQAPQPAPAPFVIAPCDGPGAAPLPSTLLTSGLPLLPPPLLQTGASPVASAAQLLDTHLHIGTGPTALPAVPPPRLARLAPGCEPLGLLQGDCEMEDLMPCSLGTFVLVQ

CSNK2A1 (human) = CSNK2A1 (human) (UniProt P68400); details: compound 1.0 µM
AKT1 (human) = AKT1 (human) (UniProt P31749); details: compound 1.0 µM
STK36 (human) = STK36 (human) (UniProt Q9NRP7); details: compound 1.0 µM
TSSK1B (human) = TSSK1B (human) (UniProt Q9BXA7); details: compound 1.0 µM
Sequence of TSSK1B (human) (Q9BXA7 whole entry, looked up): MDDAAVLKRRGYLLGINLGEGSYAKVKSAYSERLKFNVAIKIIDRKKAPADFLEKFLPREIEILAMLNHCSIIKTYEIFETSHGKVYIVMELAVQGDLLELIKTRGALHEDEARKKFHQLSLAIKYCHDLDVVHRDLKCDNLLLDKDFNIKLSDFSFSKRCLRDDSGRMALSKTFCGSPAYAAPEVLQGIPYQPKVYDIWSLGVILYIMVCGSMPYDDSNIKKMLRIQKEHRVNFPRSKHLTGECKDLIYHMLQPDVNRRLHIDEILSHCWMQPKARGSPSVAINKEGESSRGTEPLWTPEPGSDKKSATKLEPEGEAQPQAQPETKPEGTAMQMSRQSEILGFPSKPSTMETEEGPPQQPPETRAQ

CASK (human) = CASK (human) (UniProt O14936); details: compound 1.0 µM
CDK9 (human) = CDK9 (human) (UniProt P50750); details: compound 1.0 µM
RPS6KA5 KD2 (human) = RPS6KA5 KD2 (human) (UniProt O75582); details: compound 1.0 µM
MARK3 (human) = MARK3 (human) (UniProt P27448); details: compound 1.0 µM
CHEK2 (human) = CHEK2 (human) (UniProt O96017); details: compound 1.0 µM
RPS6KA3 KD1 (human) = RPS6KA3 KD1 (human) (UniProt P51812); details: compound 1.0 µM
Sequence of RPS6KA3 KD1 (human) (P51812 whole entry, looked up): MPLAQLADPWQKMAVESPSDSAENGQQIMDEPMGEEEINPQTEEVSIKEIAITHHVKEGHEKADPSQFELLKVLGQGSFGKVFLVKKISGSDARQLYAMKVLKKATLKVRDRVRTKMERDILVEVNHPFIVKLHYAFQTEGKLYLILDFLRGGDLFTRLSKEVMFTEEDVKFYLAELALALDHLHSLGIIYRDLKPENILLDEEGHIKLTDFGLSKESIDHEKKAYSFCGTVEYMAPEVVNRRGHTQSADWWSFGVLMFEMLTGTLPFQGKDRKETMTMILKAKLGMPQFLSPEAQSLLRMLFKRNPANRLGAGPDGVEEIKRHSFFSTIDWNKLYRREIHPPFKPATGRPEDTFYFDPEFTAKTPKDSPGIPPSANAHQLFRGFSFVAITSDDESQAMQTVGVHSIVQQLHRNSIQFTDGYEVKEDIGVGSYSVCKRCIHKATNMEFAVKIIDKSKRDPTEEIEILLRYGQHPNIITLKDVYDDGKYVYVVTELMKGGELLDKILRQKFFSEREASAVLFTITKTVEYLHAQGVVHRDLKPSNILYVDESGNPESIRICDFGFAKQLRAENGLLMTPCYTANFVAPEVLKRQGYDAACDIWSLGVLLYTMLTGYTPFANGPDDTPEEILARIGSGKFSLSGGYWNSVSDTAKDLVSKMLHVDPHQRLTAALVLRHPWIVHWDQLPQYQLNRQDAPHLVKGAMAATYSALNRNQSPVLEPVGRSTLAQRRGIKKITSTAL

Cc1cc(NC(=O)c2cccc(NC(=O)/C=C/CN(C)C)c2)ccc1Nc1nccc(-c2cccnc2)n1
kinase still bound, per cent of control (ULK1 (human)): 100% | kinase still bound, per cent of control (CDK14 (human)): 88% | kinase still bound, per cent of control (CSNK1A1L (human)): 71% | kinase still bound, per cent of control (EPHB1 (human)): 100% | kinase still bound, per cent of control (MAPK10 (human)): 0% | kinase still bound, per cent of control (NIM1 (human)): 100% | kinase still bound, per cent of control (CDK4 CCND3 (human)): 60% | kinase still bound, per cent of control (RPS6KA2 KD1 (human)): 100% | kinase still bound, per cent of control (CLK3 (human)): 100% | kinase still bound, per cent of control (DMPK (human)): 63% | kinase still bound, per cent of control (CAMKK1 (human)): 100% | kinase still bound, per cent of control (ALK (human)): 85% | kinase still bound, per cent of control (SNRK (human)): 100% | kinase still bound, per cent of control [1]: 100% | kinase still bound, per cent of control (DYRK1A (human)): 81% | kinase still bound, per cent of control (NUAK1 (human)): 100% | kinase still bound, per cent of control (PLK3 (human)): 66% | kinase still bound, per cent of control (MAP3K7 (human)): 61% | kinase still bound, per cent of control (LYN (human)): 87% | kinase still bound, per cent of control (MAPK14 (human)): 100% | kinase still bound, per cent of control (DYRK2 (human)): 20% | kinase still bound, per cent of control (CaMK1 (human)): 81% | kinase still bound, per cent of control (EPHB6 (human)): 71% | kinase still bound, per cent of control (PRKACA (human)): 100% | kinase still bound, per cent of control (PIK3C2B (human)): 100% | kinase still bound, per cent of control (MAPK13 (human)): 100% | kinase still bound, per cent of control (STK24 (human)): 79% | kinase still bound, per cent of control (BRAF (human)): 90% | kinase still bound, per cent of control (MAPK11 (human)): 20% | kinase still bound, per cent of control (PAK4 (human)): 100% | kinase still bound, per cent of control (PRKG1 (human)): 72% | kinase still bound, per cent of control (SIK1 (human)): 100% | kinase still bound, per cent of control (CSNK2A1 (human)): 57% | kinase still bound, per cent of control (AKT1 (human)): 100% | kinase still bound, per cent of control (STK36 (human)): 91% | kinase still bound, per cent of control (TSSK1B (human)): 100% | kinase still bound, per cent of control (CASK (human)): 100% | kinase still bound, per cent of control (CDK9 (human)): 100% | kinase still bound, per cent of control (RPS6KA5 KD2 (human)): 97% | kinase still bound, per cent of control (MARK3 (human)): 100% | kinase still bound, per cent of control (CHEK2 (human)): 95% | kinase still bound, per cent of control (RPS6KA3 KD1 (human)): 100%

CN(C)C/C=C/C(=O)Nc1cccc(C(=O)Nc2ccc(Nc3nccc(-c4cccnc4)n3)cc2)c1
kinase still bound, per cent of control (ULK1 (human)): 100% | kinase still bound, per cent of control (CDK14 (human)): 53% | kinase still bound, per cent of control (CSNK1A1L (human)): 37% | kinase still bound, per cent of control (EPHB1 (human)): 92% | kinase still bound, per cent of control (MAPK10 (human)): 0% | kinase still bound, per cent of control (NIM1 (human)): 100% | kinase still bound, per cent of control (CDK4 CCND3 (human)): 61% | kinase still bound, per cent of control (RPS6KA2 KD1 (human)): 100% | kinase still bound, per cent of control (CLK3 (human)): 84% | kinase still bound, per cent of control (DMPK (human)): 90% | kinase still bound, per cent of control (CAMKK1 (human)): 64% | kinase still bound, per cent of control (ALK (human)): 100% | kinase still bound, per cent of control (SNRK (human)): 90% | kinase still bound, per cent of control [1]: 100% | kinase still bound, per cent of control (DYRK1A (human)): 37% | kinase still bound, per cent of control (NUAK1 (human)): 37% | kinase still bound, per cent of control (PLK3 (human)): 75% | kinase still bound, per cent of control (MAP3K7 (human)): 34% | kinase still bound, per cent of control (LYN (human)): 86% | kinase still bound, per cent of control (MAPK14 (human)): 83% | Kd (DYRK2 (human)): 120 nM | kinase still bound, per cent of control (DYRK2 (human)): 3.2% | kinase still bound, per cent of control (CaMK1 (human)): 100% | kinase still bound, per cent of control (EPHB6 (human)): 18% | kinase still bound, per cent of control (PRKACA (human)): 83% | kinase still bound, per cent of control (PIK3C2B (human)): 100% | kinase still bound, per cent of control (MAPK13 (human)): 100% | kinase still bound, per cent of control (STK24 (human)): 86% | kinase still bound, per cent of control (BRAF (human)): 95% | kinase still bound, per cent of control (MAPK11 (human)): 95% | kinase still bound, per cent of control (PAK4 (human)): 79% | kinase still bound, per cent of control (PRKG1 (human)): 100% | kinase still bound, per cent of control (SIK1 (human)): 87% | kinase still bound, per cent of control (CSNK2A1 (human)): 17% | kinase still bound, per cent of control (AKT1 (human)): 87% | kinase still bound, per cent of control (STK36 (human)): 30% | kinase still bound, per cent of control (TSSK1B (human)): 100% | kinase still bound, per cent of control (CASK (human)): 100% | kinase still bound, per cent of control (CDK9 (human)): 55% | kinase still bound, per cent of control (RPS6KA5 KD2 (human)): 100% | kinase still bound, per cent of control (MARK3 (human)): 100% | kinase still bound, per cent of control (CHEK2 (human)): 100% | kinase still bound, per cent of control (RPS6KA3 KD1 (human)): 100%
